{"source": "ChEMBL document CHEMBL4387754", "about": "“Chemical modification-mediated optimisation of bronchodilatory activity of mepenzolate, a muscarinic receptor antagonist with anti-inflammatory activity” (Bioorg Med Chem, 2019)", "key": {"[1]": {"assay": "Plasma concentration in ICR mouse at 10 mg/kg administered intratracheally measured after 1 min by RP-HPLC analysis", "type": "ADME, organism-based", "details": "inhaled or intranasal"}, "[2]": {"assay": "Plasma concentration in ICR mouse at 7.5 mg/kg, iv measured after 1 min by RP-HPLC analysis", "type": "ADME, organism-based"}}, "data": [{"molecule": "C[N+]1(C)[C@@H]2C[C@@H](OC(=O)C(O)(c3cccs3)c3cccs3)C[C@H]1[C@@H]1O[C@@H]12.[Br-]", "values": [{"measurement": "concentration at 1 min", "setting": "[1]", "value": 3000, "unit": "ng/mL"}, {"measurement": "concentration at 1 min", "setting": "[2]", "value": 40000, "unit": "ng/mL"}]}]}
